Laboratory results reported in ChEMBL document CHEMBL3217557, “Triazole-substituted N-hydroxyindol-2-carboxylates as inhibitors of isoform 5 of human lactate dehydrogenase (hLDH5)” (Medchemcomm, 2011).

How the values were obtained:
[1] = target: T1, L-lactate dehydrogenase A chain (Homo sapiens, UniProt P00338); experiment: Inhibition of human LDHA4 using sodium pyruvate as substrate assessed as NADH oxidation at 125 uM measured every 30 secs for 5 mins by spectrophotometric analysis relative to control
[2] = target: T1, L-lactate dehydrogenase A chain; experiment: Competitive inhibition of human LDHA4 using 0.025 to 1 mM sodium pyruvate as substrate measured every 30 secs for 5 mins by Lineweaver-Burk plot analysis in presence of NADH
[3] = target: T1, L-lactate dehydrogenase A chain; experiment: Competitive inhibition of human LDHA4 using sodium pyruvate as substrate measured every 30 secs for 5 mins by Lineweaver-Burk plot analysis in presence of 12.5 to 150 uM NADH
[4] = organism: Homo sapiens; experiment: Inhibition of human LDH1 using sodium pyruvate as substrate assessed as NADH oxidation at 125 uM measured every 30 secs for 5 mins by spectrophotometric analysis relative to control
[5] = Competitive inhibition of human LDH1 using sodium pyruvate as substrate measured every 30 secs for 5 mins by Lineweaver-Burk plot analysis in presence of 12.5 to 150 uM NADH

Compound	inhibition [1]	Ki [2]	Ki [3]	inhibition [4]	Ki [5]
O=C(O)c1cc2c(-n3cc(CCO)nn3)cccc2n1O	< 15%				
O=C(O)c1cccc(-c2cn(-c3ccc4c(c3)cc(C(=O)O)n4O)nn2)c1	< 15%				
O=C(O)c1cc2ccc(-n3cc(CCCc4cn(-c5ccc6cc(C(=O)O)n(O)c6c5)nn4)nn3)cc2n1O	83%	37 µM	20 µM	32%	
O=C(O)c1cccc(-c2cn(-c3ccc4cc(C(=O)O)n(O)c4c3)nn2)c1	65%	45 µM	50 µM	< 3%	
CCCCc1cn(-c2cccc3c2cc(C(=O)O)n3O)nn1	< 15%				
O=C(O)c1cc2c(-n3cc(-c4ccccc4)nn3)cccc2n1O	73%	44 µM	28 µM	< 3%	
O=C(O)c1cccc(-c2cn(-c3cccc4c3cc(C(=O)O)n4O)nn2)c1	60%	86 µM	57 µM	60%	89 µM
O=C(O)c1cc2cc(-n3cc(-c4ccccc4)nn3)ccc2n1O	< 15%				
